Assay results published in patent US20210106703A1, “RADIOIMMUNOCONJUGATES IN COMBINATION WITH OTHER DRUGS AS TREATMENT AGAINST NHL” (Nordic Nanovector ASA, priority 2017, published 2021).

Tests used:
[1] = tested on: U-2932 cells; assay: Real Time Glo viability screen and validation, Betalutin with PARP or cell cycle kinase inhibitors (Examples 4, 7); format: cell-based, human
Description: DLBCL cell lines U2932 and RIVA were maintained in RPMI 1640-GlutaMAX medium (Gibco) supplemented with 15% fetal bovine serum (Biowest) and 1% penicillin-streptomycin (Gibco) at 37° C. in a humidified atmosphere containing 5% CO2. Cells were split twice a week 1:7 and diluted 2-4 days before start of the experiment, to ensure they are in exponential growth at the beginning of the experiment.
Cells were treated in 6-well plates without shaking for 18 h with Betalutin at a final concentration of 1 μg/ml for U2932 and 0.5 μg/ml for RIVA. After treatment, PBS was added to the cells, and the cells pelleted. Cells were first resuspended in 1 ml PBS, then washed twice in PBS and finally diluted in growth medium to a final concentration of 2.5*10^6 cells/ml.
(§1) Cells density measurements were performed the day before seeding. Based on these measurements cells were seeded in 384-well plates at a density of 3000 cells per well in a culturing volume of 25 μl (resulting in start titers: 120 000 cells/ml) using a robot. For measuring viability using Real Time Glo (Promega, WI, USA), the Cell Viability Substrate and NanoLuc® Enzyme were diluted 1:500 in growth medium, and 25 μL of diluted reagents dispensed in each well by a robot. All reagents were equilibrated to 37° C. Cells were incubated with the reaction mix for 1 h at 37° C. before the first measurement of luminescence. Measurements were repeated as often as required within 72 h after adding the reagents. A Tecan SPARK 10M plate reader (Tecan, SUI) was used to measure luminescence, with the integration time set to 1 sec.
The screen was performed in 384-well plate with selected PARP inhibitors (stock solutions 10 mM in DMSO) acquired from SelleckChem (Selleckchem, TX, USA). To include no-drug controls, the drug panel (Table 6) was divided on two plates. Due to previous observations of cells growing poorly in wells located at the edges of the plates, the two outer most rows and columns were not used. As previously mentioned three different drug concentrations were used in the screen, 10 nM and 1 μM for U2932 and 10 and 100 nM for RIVA.
Candidate hits were identified using the Bliss Independence test for synergy. The effect of each drug alone at each concentration was calculated as the fraction of dead cells as compared to control cells Fa=(1−(RLUdrug/avgRLUcontrol), a similar calculation was performed for the effect of Betalutin alone Fb=(1−(avgRLUBetalutin/avgRLUcontrol). Through the following equation we found the expected additive effect of the combination of drug+Betalutin: Expected effect (E)Fab=(Fa+Fb−Fa*Fb). We subtracted this expected effect from the measured effect (M)Fab=(1−(RLUDrug+Betalutin/avgRLUcontrol) to get a value (Diff)Fab representing how the measured effect differed from the expected additive effect of the combination. This value was normalized to the survival fraction of drug alone: (Diff)Fab#=(Diff)Fab/(1−Fa). Furthermore, to get a measure of how big the well-to-well variation was, we calculated the standard deviation for the effect of Betalutin alone in the 48 control wells on each plate: (STDEV)Fb=(RLUBetalutin/RLUcontrol)−(averageRLUBetalutin/averageRLUcontrol). Drugs with a value (Diff)Fab#two times higher than the standard deviation of Betalutin treated controls, (STDEV)Fb, were scored as hits.
as §1, with “Measurements were repeated as often as required within 72 h after adding the reagents. A Tecan SPARK 10M plate reader (Tecan, SUI) was used to measure luminescence, with the integration time set to 1 sec.” left out

[2] = tested on: DOHH2 cells; assay: Cell cycle analysis (PI, Muse flow cytometer); format: cell-based, human
Description: (§2) Cells were harvested at day 0, 2 h, 18 h, 1 d, 2 d, 3 d, of RIT then fixed in 70% ethanol at −20° C. for 3 hours and stained with Cell Cycle kit (with PI) reagent from Merck Millipore in the dark for 30 min at room temperature before analysis using a Muse® flow cytometer. The percentage of cells in G0/G1, S and G2/M phases was then calculated (mean of three experiments in triplicate).
(§3) At different times after start of incubation, proteins were extracted to measure the CDK1 phosphorylation levels, in parallel, proliferation was determined and at 18 h and 24 h after start of incubation, the percentage of cells in G2/M was assessed (experiments were performed three time except the cell cycle analysis).
(§4) Cells were harvested at 0 h, 2 h, 18 h, 1 d, 2 d, 3 d, and fixed in 70% ethanol at −20° C. for at least 3 h. After staining with the Muse® Cell Cycle Assay Kit (Merck Millipore, Molsheim, France) using propidium iodide in the dark at room temperature for 30 min, cell cycle distribution was analyzed using a Muse® flow cytometer. The percentage of cells in the G0/G1, S and G2/M was calculated (mean of three experiments in triplicate) and the effect of WEE-1 and MYT-1 kinase inhibitors on the cell cycle was assessed.

[3] = tested on: Ramos cells; assay: Cell cycle analysis (PI, Muse flow cytometer); format: cell-based, human
Description: as §2, §3, §4

[4] = tested on: Rec-1 cells; assay: Cell cycle analysis (PI, Muse flow cytometer); format: cell-based, human
Description: as §2, §3, §4

[5] = tested on: Ramos tumor xenografts; assay: Treatment of mice with tumor xenografts; format: in vivo, athymic mice; details: Ramos xenograft
From the text: Each treatment group included 6-9 mice.

**Q.** What does the source list for `Nc1nc(Nc2ccc(S(N)(=O)=O)cc2)nn1C(=O)c1c(F)cccc1F` [JNJ-7706621]?
**A.** inhibition at 1 µM ([1]; Homo sapiens, U2932, 120 h, U-2932, drug 1 μM, five days into treatment, read-out: Growth inhibition, drug alone): ~40%; inhibition at 0.64 µM ([1]; Homo sapiens, U2932, U-2932, drug 640 nM, read-out: Growth inhibition, drug with Betalutin pre-treatment): ~80%; Growth inhibitory effect, drug alone ([1]; U-2932, drug 10 nM): no growth inhibitory effect; Combined growth inhibition with Betalutin pre-treatment ([1]; U-2932, drug 1 μM + Betalutin): more than 60%; Synergy by combination index ([1]; U-2932, drug 80-1280 nM with 0.5, 1 or 2 μg/ml Betalutin, day 5): Synergy was found for all tested combinations; Synergy by combination index, confirmation experiments ([1]; U-2932, drug 100-5000 nM with Betalutin 0.5-5 μg/ml, day 5): observed for all but two combinations; Growth impairment, drug alone ([1]; U-2932, highest tested dose 1280 nM): 30%; BLISS analysis, combination with Betalutin versus expected additive effect ([1]; U-2932, significant = more than twice the SD of Betalutin alone): significantly greater than the expected additive effect

**Q.** Which results are given for `C=CCn1c(=O)c2cnc(Nc3ccc(N4CCN(C)CC4)cc3)nc2n1-c1cccc(C(C)(C)O)n1` [MK-1775]?
**A.** Proportion of cells in G2/M, inhibitor combined with ^177Lu-lilotomab ([2]; DOHH2, 1 μM inhibitor + ^177Lu-lilotomab, versus ^177Lu-lilotomab alone or untreated): reduction of the fraction of G2/M cells; Proportion of cells in G2/M, inhibitor combined with ^177Lu-lilotomab ([3]; 1 μM inhibitor + ^177Lu-lilotomab, versus ^177Lu-lilotomab alone or untreated): reduction of the fraction of G2/M cells; Proportion of cells in G2/M, inhibitor combined with ^177Lu-lilotomab ([4]; Rec-1, 1 μM inhibitor + ^177Lu-lilotomab, versus ^177Lu-lilotomab alone or untreated): reduction of the fraction of G2/M cells; Median survival ([5]; 250 MBq/kg ^177Lu-lilotomab + 30 mg/kg MK-1775 twice a day, day 1 to 5): 47 days; Tumor growth versus 250 MBq/kg ^177Lu-lilotomab alone ([5]; 250 MBq/kg ^177Lu-lilotomab + MK-1775, p=0.001): significantly delayed tumor growth

B1: Lutetium-177 [^177Lu]-lilotomab satetraxetan (conjugate, chains of the INN, looked up)
VH: EIQLQQSGPELVKPGASVKVSCKASGYSFTDYNMYWVKQSHGKSLEWIGYIDPYNGDTTYNQKFKGKATLTVDKSSSTAFIHLNSLTSEDSAVYYCARSPYGHYAMDYWGQGTSVTVSS
VL: DIVMTQSHKLLSTSVGDRVSITCKASQDVSTAVDWYQQKPGQSPKLLINWASTRHTGVPDRFTGSGSGTDYTLTISSMQAEDLALYYCRQHYSTPFTFGSGTKLEIK
modifications: 177Lu satetraxetan chelator conjugate
**Q.** Which “Proportion of cells showing a G2/M cell cycle arrest” value ([2]; DOHH2, 6 MBq/mL, at 24 h) does the source give for B1 here?
**A.** 45±11%

**Q.** And the “Proportion of cells showing a G2/M cell cycle arrest” value ([3]; 6 MBq/mL, at 24 h)?
**A.** 64±16%

**Q.** And the “Proportion of cells showing a G2/M cell cycle arrest” value ([4]; Rec-1, 6 MBq/mL, at 24 h)?
**A.** 44±11%

**Q.** And the “Proliferation relative to non-treated cells” value ([1]; U-2932, 1 μg/ml [600 MBq/mg])?
**A.** more than 80%

**Q.** What about the “Inhibition of proliferation capacity, single treatment” value ([1]; U-2932, Betalutin 1 μg/ml, days 5 and 6) of the same molecule?
**A.** less than 10%

**Q.** And the “Proliferation potential compared to untreated cells” value ([1]; U-2932, validation screen, highest Betalutin dose (2 μg/ml))?
**A.** about 70%

**Q.** And the Median survival ([5]; 250 MBq/kg ^177Lu-lilotomab alone)?
**A.** 40 days
